Test results: US20220387552A1, “METHODS OF MODULATING HAIR FOLLICLE STEM CELL QUIESCENCE BY MODULATING DERMAL NICHE ACTIVATOR GAS6” (President and Fellows of Harvard College, priority 2019, published 2022)
“Also recorded” adds a separate entry of the source.

What was measured:
[1] = test system: FACS-purified HFSCs; assay: Colony formation assay of cultured HFSCs; format: cell-based, mouse
Description: For the isolation of HFSCs, mouse dorsal skin was dissected, and the fat layer was removed using a surgical scalpel. The skin was incubated in trypsin-EDTA at 37° C. for 35-45 min on an orbital shaker. Single-cell suspension was obtained by scraping the epidermal side and filtering. Cells were centrifuged for 8 min at 350 g at 4° C., resuspended in 5% fetal bovine serum, and stained for 30-40 min. The following antibodies were used: CD49f (Integrin alpha 6)-PE (eBioscience, 12-0495-82; 1:500); CD34-eFlour660 (eBioscience, 50-0341-82; 1:100); Sca-1-PerCP-Cy5.5 (eBioscience, 45-5981-82; 1:1000); and CD45-eFlour450 (eBioscience, 48-0451-82; 1:250). The HFSCs were isolated as CD45^−, Integrin alpha 6^+, CD34^+, Sca-1^− cells.
FACS-purified HFSCs were plated on mitomycin C (P212121, Cat #M92010)-treated J2 fibroblast feeders at a density of 10,000 cells/well of 12-well plates, in E media supplemented with 15% (v/v) serum and 0.3 mM calcium as described in previous studies^78,79. For Gas6-treatment, E medium was supplemented with recombinant mouse Gas6 protein (R&D systems, Cat #8310-GS) at 500 ng/ml. For R428-treatment experiments, E medium was supplemented with R428 (APExBIO, Cat #A8329) at 1 μM. Cells were fixed and stained with 1% (wt/vol) Rhodamine B (Millipore Sigma, R6626). Colony diameter was measured from scanned images of plates using Image J.

[2] = test system: ADX mice; assay: Hair cycle progression of ADX mice treated topically with R428; format: in vivo; conditions: R428 2 mM in ethanol, topical once a day, back skin of ADX mice
Description: (§1) C57BL/6J mice were anesthetized. Small incisions were made on the back skin right on top of each adrenal gland. Both adrenal glands were removed with a pair of curved forceps. Sham-operated mice (Sham) underwent the same procedures as the ADX mice, except their adrenal glands were not removed.
RU486 (TCI America, Cat #M1732; 4% in ethanol) was used to induce K15-CrePGR by topical application for 10-14 days. To induce Pdgfra-CreER and Sox2-CreER, tamoxifen (Millipore Sigma, T5648; 20 mg/kg) was injected into mice intraperitoneally once per day for 4 to 6 days. To inhibit AXL activity, R428 (APExBIO, A8329; 2 mM in ethanol) was applied to ADX mice topically once a day. EdU (Lumiprobe Corporation, Cat #10540; 25 mg/kg) were administered by intraperitoneal injections. AAVs were produced as described previously^46 and injected directly into dermis through intradermal injections. 2-month-old C57BL/6J mice were injected with AAV-GFP or AAV-Gas6 (1×10^11 genome copy number per animal).
The hair cycle progression was documented by standardized photographs at the start of each experiment and weekly thereafter. Anagen was determined by darkening of the skin followed by hair growth as previously described^75. The back skin of mice was shaved with an electric clipper to reveal skin colour changes and hair coat recovery. […] Telogen length was quantified as described previously^19.

[3] = test system: ADX mice; assay: Hair cycle progression of ADX mice fed corticosterone in drinking water; format: in vivo; conditions: 35 μg/ml corticosterone in drinking water
Description: as §1
The hair cycle progression was documented by standardized photographs at the start of each experiment and weekly thereafter. Anagen was determined by darkening of the skin followed by hair growth as previously described^75. The back skin of mice was shaved with an electric clipper to reveal skin colour changes and hair coat recovery. Once the hair coat recovery reached ˜90% of the back skin, the mice were shaved again to monitor the entry into next anagen. Telogen length was quantified as described previously^19.
Control animals received the vehicle water.

[4] = test system: C57BL/6 mice; assay: Hair cycle progression of C57BL/6 mice under chronic corticosterone feeding; format: in vivo; conditions: wild-type mice, supplemental corticosterone in drinking water from second telogen; vehicle mice entered anagen around P90-P100
Description: The hair cycle progression was documented by standardized photographs at the start of each experiment and weekly thereafter. Anagen was determined by darkening of the skin followed by hair growth as previously described^75. The back skin of mice was shaved with an electric clipper to reveal skin colour changes and hair coat recovery. Once the hair coat recovery reached ˜90% of the back skin, the mice were shaved again to monitor the entry into next anagen. Telogen length was quantified as described previously^19. 35 μg/ml Corticosterone (Millipore Sigma, C2505) was dissolved in vehicle (0.45% hydroxypropyl-β-cyclodextrine in drinking water) in drinking water during the entire corticosterone feeding period. Corticosterone water was changed every 3 days to prevent degradation. Control animals received the vehicle water.

[5] = Plasma corticosterone levels by ELISA after corticosterone feeding; format: in vivo, mice
Description: 35 μg/ml Corticosterone (Millipore Sigma, C2505) was dissolved in vehicle (0.45% hydroxypropyl-β-cyclodextrine in drinking water) in drinking water during the entire corticosterone feeding period. Corticosterone water was changed every 3 days to prevent degradation. Control animals received the vehicle water. Blood corticosterone levels were measured by ELISA (ARBOR assays, [MUT]-H1) according to the manufacturer's instruction. Serum was collected using the heparinized tubes (Microvette® CB 300 LH or Microvette® 300 LH, Sarstedt) between 10 a.m. and 12 p.m.

[6] = test system: hair follicle; conditions: corticosterone feeding mice
Description: 35 μg/ml Corticosterone (Millipore Sigma, C2505) was dissolved in vehicle (0.45% hydroxypropyl-β-cyclodextrine in drinking water) in drinking water during the entire corticosterone feeding period. Corticosterone water was changed every 3 days to prevent degradation. Control animals received the vehicle water.
The skin samples were fixed in 4% paraformaldehyde (PFA, Electron Microscopy Sciences, Cat #15713) for 15 min at room temperature, washed in phosphate buffered saline (PBS), immersed in 30% sucrose solution overnight at 4° C., and embedded in optimal cutting temperature compound (Sakura Finetek, Cat #4583). 35 μm thick sections were fixed in 4% PFA. The fixed slides were then blocked in blocking buffer (5% Donkey serum, 1% bovine serum albumin, 2% cold-water fish gelatin in 0.3% Triton X-100 in PBS) for 1 h at room temperature, incubated with primary antibodies overnight at 4° C., and incubated with secondary antibodies for 2-4 h at room temperature. The following antibodies and dilutions were used: CD34 (eBioscience, 14-0341-85, 1:100), P-Cadherin (R&D Systems, AF761, 1:400), GFP (Abcam, ab290, 1:5000) and Cleaved Caspase-3 (Cell Signaling Technology, 1:300). DAPI was used as a counterstain for the nucleus.

## Nc1nc(Nc2ccc3c(c2)CC[C@@H](N2CCCC2)CC3)nn1-c1cc2c(nn1)-c1ccccc1CCC2 [R428]
[1]; R428 at 1 μM in E medium
  HFSC colony formation: inhibited HFSC colony formation
[2]
  anagen entry / hair growth (hair cycle progression): suppressed their precocious anagen entry; also recorded: repress the phenotypes of ADX; also recorded: inhibit hair growth

## C[C@]12C[C@H](O)[C@H]3[C@@H](CCC4=CC(=O)CC[C@@]43C)[C@@H]1CC[C@@H]2C(=O)CO [corticosterone]
[3]
  HFSC activation / quiescence (hair cycle progression): effectively suppressed the aberrant activation of HFSCs; also recorded: suppress the loss of HFSC quiescence of ADX mice
[4]
  anagen entry (hair cycle progression): stayed in telogen
[5]; ADX mice, corticosterone in drinking water
  plasma corticosterone levels: restored
[5]; wild-type mice, supplemental corticosterone in drinking water
  corticosterone levels in the circulation: enhanced corticosterone levels in the circulation
[6]
  abnormal cell death in hair follicle (aCAS3): does not display abnormal cell death

B1: Gas6: recombinant mouse Gas6 protein (R&D systems, Cat #8310-GS); gamma-carboxyglutamic acid-containing secreted protein, AXL ligand (protein, UniProt Q61592 28-674, looked up)
Growth arrest-specific …: VLLRAREAAQFLRPRQRRAYQVFEEAKQGHLERECVEEVCSKEEAREVFENDPETEYFYPRYQECMRKYGRPEEKNPDFAKCVQNLPDQCTPNPCDKKGTHICQDLMGNFFCVCTDGWGGRLCDKDVNECVQKNGGCSQVCHNKPGSFQCACHSGFSLASDGQTCQDIDECTDSDTCGDARCKNLPGSYSCLCDEGYTYSSKEKTCQDVDECQQDRCEQTCVNSPGSYTCHCDGRGGLKLSPDMDTCEDILPCVPFSMAKSVKSLYLGRMFSGTPVIRLRFKRLQPTRLLAEFDFRTFDPEGVLFFAGGRSDSTWIVLGLRAGRLELQLRYNGVGRITSSGPTINHGMWQTISVEELERNLVIKVNKDAVMKIAVAGELFQLERGLYHLNLTVGGIPFKESELVQPINPRLDGCMRSWNWLNGEDSAIQETVKANTKMQCFSVTERGSFFPGNGFATYRLNYTRTSLDVGTETTWEVKVVARIRPATDTGVLLALVGDDDVVPISVALVDYHSTKKLKKQLVVLAVEDVALALMEIKVCDSQEHTVTVSLREGEATLEVDGTKGQSEVSTAQLQERLDTLKTHLQGSVHTYVGGLPEVSVISAPVTAFYRGCMTLEVNGKILDLDTASYKHSDITSHSCPPVEHATP
[1]; recombinant mouse Gas6 protein at 500 ng/ml in E medium
  HFSC colony formation: formed more colonies
